Read-outs that look alike come from different tables or passages of the source.
What was measured:
[1] = more potent than capsaicin; cited from earlier work
[2] = cited from earlier work
[3] = test system: subjects with osteoarthritis of the knee; experiment: Osteoarthritis of the knee safety study (Phase 1): safety, tolerability and VAS pain after intra-articular infiltration; assay type: in vivo, human; settings: for patients reporting transient burning pain immediately following instillation: after 2% lignocaine
Description: The primary objective of the study was to evaluate the safety and tolerability of intra-articular capsaicin, when co-administered with intra-articular local anesthetic, compared to placebo, in subjects with end-stage osteoarthritis of the knee, already scheduled to receive knee replacements.
Study drug was stored at a temperature between 15° C. and 25° C.
The study was designed to include 16 evaluation subjects. […] Sixteen subjects completed the study.
Patients were treated randomly and in double-blind fashion in four treatment cohorts, with each cohort having a progressively longer interval between the intra-articular administration of study medication and subsequent total knee replacement (2, 4, 7, and 14 days). […] Gross and microscopic pathology analysis was completed for each treatment cohort before the next treatment coort was treated.
Each subject had 3 study visits: a Screening Day (Day −7 to −1), the Treatment Day (Day 0), and a Post-Treatment Day (scheduled for Day +2, +4, +7, or +14). On the Treatment Day the subject was randomized, pre-treatment evaluation was performed. The patients were brought into the procedure room, and a VAS pain score was taken (0 mm—no pain, 100 mm—extreme pain). Once the patient had marked his or her pain on the card, he/she was prepped for knee cannulation. Once the cannula was placed, the patient received by intra-articular infiltration, 3 mg/kg (maximum dose of 200 mg) of 2% lignocaine into the knee scheduled to be replaced.
VAS pain scores as well as verbal reports were taken immediately following administration, as well as prior to knee replacement surgery. No subjects discontinued from the study due to adverse events.
On the Post-Treatment Day, study evaluation was performed followed by the scheduled knee replacement, with intra-operative bone and soft tissue biopsies performed for subsequent examination. […] This therefore left the 3 placebo and 9 active patients from the 4 day, 7 day, and 14 day cohorts.

[4] = test system: subjects undergoing transpositional osteotomy (bunionectomy) for hallux valgus deformity; experiment: Bunionectomy efficacy study (Phase II), intra-operative infiltration into the wound; assay type: in vivo, human; settings: for VAS pain score at operation site (Table 4): 1000 μg into wound, mean +/− SEM, n = 11
Description: The primary efficacy endpoint was the proportion of subjects in each treatment group requiring opioid analgesia in the first 24 hours post-operatively. The proportions were compared amongst treatment groups using the Cochran-Haenszel test. Secondary efficacy end points included: i) proportion of subjects in each treatment group requiring opioid analgesia in the first 36 hour period post-operatively (Similarly, the proportions were compared amongst treatment groups using the Cochran-Haenszel test); ii) proportion of subjects in each treatment group requiring opioid analgesia in the 10 day period post-operatively (Similarly, the proportions were compared amongst treatment groups using the Cochran-Haenszel test); iii) time to first usage of opioid analgesia in each treatment group (a survival analysis approach will be used: the product-limit (Kaplan-Meier) method will be applied to time to first usage of opioid analgesia. The median time to first usage of opioid analgesia will be estimated in both treatment groups. Pairwise comparisons will be performed to test for equality of the survival curves between the 2 treatment groups using both the log-rank and the Wilcoxon test); iv) total usage of analgesia in each treatment group (the total usage of analgesia will be compared by an analysis of variance with treatment and center as independent variables. A pairwise comparison will be performed between the treatment groups); and v) VAS assessment of pain at the site of operation in each treatment group (The VAS score at each time point will be compared by an analysis of variance with treatment and center as independent variables. A pairwise comparison will be performed between the treatment groups). […] The efficacy analysis was performed on the data obtained ten days postoperatively. The safety analysis was performed based on the safety data for the entire study, including the 6 week and 12 week follow-up periods. The blind was broken at the time the efficacy analysis was performed. However, the individual treatment assignment was available to the statistical analysis group only. All other personnel involved in the study, including the Investigator, study monitor and proprietary staff, remained blinded until the entire study was completed.
The study was designed to include 40 evaluation subjects. […] Each subject had six (6) study visits: a Screening Day (Day −28 to −1), an Operation Day (Day 0), and four (4) Follow-up visits (scheduled for Days 3, 10 and weeks 6 and 12).
On Operation Day (Day 0) the following was performed: a) Pre-operation: Prior to the initiation of an ankle block, inclusion/exclusion criteria assessment was performed. […] Immediately prior to wound closure, the Investigator slowly dripped the study medication (4 mL) from a syringe into the wound, ensuring even tissue exposure. The wound was then closed according to normal practices and procedures.
In the 24 hours following administration of study medication, vital signs (supine pulse rate and blood pressure) were recorded at 1, 2, 4 and 24 hours post administration. VAS assessment of pain at the operation site was performed at 1, 4, 8, 12 and 24 hours post administration. In those instances where VAS measurements coincide with blood sampling procedures, the VAS assessment was performed first. […] The quantity of each blood sample was 10 mL. Laboratory safety assessments, e.g., haematology, biochemistry, urinalysis were performed at 24 hours post administration. Adverse events were spontaneously reported by the subject and recorded. Rescue analgesia medication was provided to the subject if required (initially diclofenac 50 mg, repeated at 8 hourly intervals if necessary).

[5] = test system: radiation induced hyperalgesia; settings: systemic, cited from earlier work
[6] = 10, 100, 300 μg intra-articular

Question: With `C=C(C)[C@]12C[C@@H](C)[C@@]34O[C@](Cc5ccccc5)(O[C@@H]1[C@@H]3C=C(COC(=O)Cc1ccc(O)c(OC)c1)C[C@]1(O)C(=O)C(C)=C[C@@H]41)O2` [Resiniferatoxin, resiniferatoxin] as the molecule, how does the “potency compared with capsaicin” value [1] read?
Answer: 10^3-10^4 fold

Question: Which “solubility in alcohol, ether, benzene and chloroform” value [2] does the source give for `COc1cc(CNC(=O)CCCC/C=C/C(C)C)ccc1O` [purified capsaicin, N-(4-hydroxy-3-methoxybenzyl)-8-methylnon-trans-6-enamide] here?
Answer: freely soluble

Question: What about the “patients reporting transient burning pain immediately following instillation” value ([3]; 10 μg intra-articular) of the same molecule?
Answer: 0 of 4

Question: And the “subjects requiring intervention for post-injection (hyper)algesia” value ([3]; 100 μg dose group (n=4))?
Answer: 1 subject

Question: What about the “patients reporting transient burning pain immediately following instillation” value ([3]; 100 μg intra-articular) of the same molecule?
Answer: 1 of 4

Question: What about the “subjects requiring intervention for post-injection (hyper)algesia” value ([3]; 300 μg dose group (n=4)) of the same molecule?
Answer: 4 subjects

Question: What about the “patients reporting transient burning pain immediately following instillation” value ([3]; 300 μg intra-articular) of the same molecule?
Answer: 4 of 4

Question: What about the “VAS reduced, prior to administration vs day of surgery” value ([3]; 9 active patients of the 4, 7 and 14 day cohorts, doses 10-300 μg pooled) of the same molecule?
Answer: 62±14%

Question: And the “effects on laboratory safety parameters or vital signs” value [3, 6]?
Answer: no treatment related effects

Question: And the “effects on soft tissue, cartilage, or bone upon histopathological examination” value [3, 6]?
Answer: no treatment related effects

Question: What about the “gross and microscopic pathology” value [3, 6] of the same molecule?
Answer: normal

Question: What about the “signs of erythema, edema, or hemorrhage at the site of injection” value [3, 6] of the same molecule?
Answer: no treatment related signs

Question: And the systemic side effects [3, 6]?
Answer: No treatment related systemic side effects were seen

Question: And the tolerability [3, 6]?
Answer: well tolerated at all dose levels

Question: What about the “median decrease from baseline to pre-operative time point in VAS for pain at the target knee, compared with placebo” value ([3]; all 3 capsaicin dose groups) of the same molecule?
Answer: substantially greater

Question: What about the “average duration of post injection hyperalgesia” value ([3]; all cases) of the same molecule?
Answer: less than thirty minutes

Question: What about the “onset of post-administration (hyper)algesia after administration” value ([3]; all episodes, 100 μg and 300 μg) of the same molecule?
Answer: ≤ 5 min

Question: And the “indication of efficacy on VAS pain” value ([3]; any of the dose levels (10 μg, 100 μg, 300 μg))?
Answer: No clear treatment related indication of efficacy

Question: What about the “effect on pain score and use of rescue” value ([4]; 1000 μg into the wound prior to wound closure) of the same molecule?
Answer: reduced both pain score as well as the use of rescue

Question: And the “VAS pain score at operation site (Table 4)” value (from here on “VAS pain score”) ([4]; 8 hr)?
Answer: 5.5 +/− 2.3

Question: And the “VAS pain score” value ([4]; 12 hr)?
Answer: 8.2 +/− 3.8

Question: What about the “VAS pain score” value ([4]; 24 hr) of the same molecule?
Answer: 1.9 +/− 1.0

Question: And the “VAS pain score” value ([4]; 48 hr)?
Answer: 5.9 +/− 2.5

Question: What about the “study subjects requiring rescue” value ([4]; 1000 μg prior to wound closure, within 72 hours, n=11, P<0.05 vs placebo) of the same molecule?
Answer: 40%

Question: What about the radiation induced hyperalgesia ([5]; final doses of 25 mg/kg or less prior to ultra violet radiation) of the same molecule?
Answer: prevented radiation induced hyperalgesia

Question: What about the pain threshold ([5]; final doses of 25 mg/kg or less) of the same molecule?
Answer: did not elevate the pain threshold above normal range

Question: What about the pain threshold ([5]; final doses of 50 mg/kg or greater) of the same molecule?
Answer: pain threshold elevated
